Measured values: publication PMC9542405, “Design, synthesis and antitumor activity of 5-trifluoromethylpyrimidine derivatives as EGFR inhibitors” (Journal of Enzyme Inhibition and Medicinal Chemistry, 2022)

What was measured:
[1] = test system: PC-3 cells; test: In vitro activity against cancer cell lines (MTT), PC-3; format: cell-based; details: Homo sapiens, mean ± SD of three replicates
Text: (§1) Co., Ltd. A549 (Human non-small-cell lung cancer cell line) cells, MCF-7 (Human breast cancer
(§2) cell line) cells, and PC-3 (Human prostate cancer cell line) cells. They were all purchased from the
(§3) Shanghai Cell Bank of the Chinese Academy of Sciences. NRK-52E (Normal rat kidney cell line)
(§4) cells donated by Guizhou Medicinal University were also used to evaluate the cytotoxicity.

[2] = biological target: T1, EGFR^wt-TK (Homo sapiens, UniProt P00533); test: In vitro EGFR^wt-TK assay (ELISA kit); format: biochemical; details: mean ± SD of three replicates; for EGFR^wt-TK inhibition rate / inhibition at 1 µM: 1 μM; for inhibition at 1 µM: read-out: EGFR^wt-TK inhibition rate
T1 construct: purchased
T1 sequence (P00533 25-1210): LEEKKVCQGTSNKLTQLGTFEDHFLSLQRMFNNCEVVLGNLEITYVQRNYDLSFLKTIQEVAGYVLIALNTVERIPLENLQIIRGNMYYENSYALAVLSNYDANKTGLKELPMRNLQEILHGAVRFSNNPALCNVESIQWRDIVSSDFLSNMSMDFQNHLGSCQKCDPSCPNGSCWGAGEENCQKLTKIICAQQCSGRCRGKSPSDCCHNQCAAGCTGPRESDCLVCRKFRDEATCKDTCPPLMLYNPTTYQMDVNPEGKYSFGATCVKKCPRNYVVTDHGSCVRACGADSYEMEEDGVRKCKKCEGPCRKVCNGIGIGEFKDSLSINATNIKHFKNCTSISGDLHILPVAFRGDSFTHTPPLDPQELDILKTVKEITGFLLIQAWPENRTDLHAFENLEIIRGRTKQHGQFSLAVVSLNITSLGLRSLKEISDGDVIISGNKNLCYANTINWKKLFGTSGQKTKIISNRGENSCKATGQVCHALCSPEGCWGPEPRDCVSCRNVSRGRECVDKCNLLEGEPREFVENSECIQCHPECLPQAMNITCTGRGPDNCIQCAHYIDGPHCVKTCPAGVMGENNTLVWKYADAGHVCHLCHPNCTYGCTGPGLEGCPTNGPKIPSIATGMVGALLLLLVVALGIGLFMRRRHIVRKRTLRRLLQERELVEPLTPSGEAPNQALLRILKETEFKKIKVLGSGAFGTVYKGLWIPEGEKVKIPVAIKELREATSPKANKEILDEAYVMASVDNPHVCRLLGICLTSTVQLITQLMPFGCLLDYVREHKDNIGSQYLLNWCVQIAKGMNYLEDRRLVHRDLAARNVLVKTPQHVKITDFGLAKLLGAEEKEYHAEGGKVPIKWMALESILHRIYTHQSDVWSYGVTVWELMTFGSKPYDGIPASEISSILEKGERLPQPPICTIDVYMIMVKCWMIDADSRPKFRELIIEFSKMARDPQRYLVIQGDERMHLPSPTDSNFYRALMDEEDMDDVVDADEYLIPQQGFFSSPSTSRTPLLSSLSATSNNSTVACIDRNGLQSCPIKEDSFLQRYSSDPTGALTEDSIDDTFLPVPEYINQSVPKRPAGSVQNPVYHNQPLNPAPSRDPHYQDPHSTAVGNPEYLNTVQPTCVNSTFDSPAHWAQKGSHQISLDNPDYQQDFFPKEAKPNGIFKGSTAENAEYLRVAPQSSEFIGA
Experimental: The IC50 values of target compounds against EGFR^wt were calculated from the dose − response curve under Graph-Pad Prism 9, which was tested at the different concentrations.

[3] = test system: A549 cells; test: In vitro activity against cancer cell lines (MTT), A549; format: cell-based; details: Homo sapiens, mean ± SD of three replicates
Text: as §1, §2, §3, §4

[4] = test system: MCF-7 cells; test: In vitro activity against cancer cell lines (MTT), MCF-7; format: cell-based; details: Homo sapiens, MCF7, mean ± SD of three replicates
Text: as §1, §2, §3, §4

Row | Compound | IC50 [1] [µM] | EGFR^wt-TK inhibition rate [2] [%] | inhibition at 1 µM [2] [%] | IC50 [2] [µM] | IC50 [3] [µM] | IC50 [4] [µM] | melting point [°C]
1 | CCC(=O)Nc1ccc(Nc2ncc(C(F)(F)F)c(Nc3ccsc3C(=O)NC)n2)cc1 [Compound 9i, 3-[2-(4-Propionylamino-phenylamino)-5-trifluoromethyl-pyrimidin-4-ylamino]-thiophene-2-carboxylic acid methylamide] | > 20 | – | 11.9 ± 0.35 | – | 17.8 ± 1.67 | > 20 | –
2 | CNC(=O)c1sccc1Nc1nc(Nc2ccc(NC(=O)C=Cc3ccccc3)cc2)ncc1C(F)(F)F [Compound 9t, 3-{2-[4-(3-Phenyl-acryloylamino)-phenylamino]-5-trifluoromethyl-pyrimidin-4-ylamino}-thiophene-2-carboxylic acid methylamide] | > 20 | 53.56 ± 1.69 | > 50 | 0.26 ± 0.071 | 3.67 ± 0.61 | 6.45 ± 0.53 | 212.5 to 213.8
3 | CNC(=O)c1sccc1Nc1nc(Nc2ccc(NC(=O)C3CCC(=O)CC3)cc2)ncc1C(F)(F)F [Compound 9q, N-Methyl-3-((2-((4-(4-oxocyclohexane-1-carboxamido)phenyl)amino)-5-(trifluoromethyl)pyrimidin-4-yl)amino)thiophene-2-carboxamide] | > 20 | – | 35.5 ± 0.89 | – | 7.65 ± 0.39 | 10.6 ± 1.58 | –
4 | CNC(=O)c1sccc1Nc1nc(Nc2ccc(NC(=O)C(C)C)cc2)ncc1C(F)(F)F [Compound 9j, 3-[2-(4-Isobutyrylamino-phenylamino)-5-trifluoromethyl-pyrimidin-4-ylamino]-thiophene-2-carboxylic acid methylamide] | > 20 | – | 8.76 ± 0.68 | – | > 20 | > 20 | –
5 | CNC(=O)c1sccc1Nc1nc(Nc2ccc(NC(=O)C3CCC3)cc2)ncc1C(F)(F)F [Compound 9m, 3-{2-[4-(Cyclobutanecarbonyl-amino)-phenylamino]-5-trifluoromethyl-pyrimidin-4-ylamino}-thiophene-2-carboxylic acid methylamide] | > 20 | – | 13.3 ± 0.83 | – | 15.1 ± 2.29 | > 20 | 236.1 to 236.4
6 | CNC(=O)c1sccc1Nc1nc(Nc2ccc(NC(=O)C3CCCCC3)cc2)ncc1C(F)(F)F [Compound 9o, 3-{2-[4-(Cyclohexanecarbonyl-amino)-phenylamino]-5-trifluoromethyl-pyrimidin-4-ylamino}-thiophene-2-carboxylic acid methylamide] | > 20 | – | 26.6 ± 1.38 | – | 8.49 ± 0.63 | 13.5 ± 1.24 | 246.7 to 248.2
7 | CNC(=O)c1sccc1Nc1nc(Nc2ccc(NC(=O)C3CCN(C)CC3)cc2)ncc1C(F)(F)F [Compound 9r, 1-Methyl-piperidine-4-carboxylicacid{4-[4-(2-methylcarbamoyl-thiophen-3-ylamino)-5-trifluoromethyl-pyrimidin-2-ylamino]-phenyl}-amide] | > 20 | – | 33 ± 0.57 | – | 8.41 ± 0.92 | 11.2 ± 1.47 | 210.8 to 211.6
8 | CNC(=O)c1sccc1Nc1nc(Nc2ccc(NC(=O)c3ccc(OC)cc3)cc2)ncc1C(F)(F)F [Compound 9g, 3-{2-[4-(4-Methoxy-benzoylamino)-phenylamino]-5-trifluoromethyl-pyrimidin-4-ylamino}-thiophene-2-carboxylic acid methylamide] | > 20 | – | 28.8 ± 0.62 | – | 7.63 ± 0.62 | 10.1 ± 1.18 | 229.4 to 230.6
9 | CNC(=O)c1sccc1Nc1nc(Nc2ccc(NC(=O)C3CCOCC3)cc2)ncc1C(F)(F)F [Compound 9p, Tetrahydro-pyran-4-carboxylicacid{4-[4-(2-methylcarbamoyl-thiophen-3-ylamino)-5-trifluoromethyl-pyrimidin-2-ylamino]-phenyl}-amide] | > 20 | – | 36.46 ± 0.23 | – | 7.28 ± 0.47 | 10 ± 0.96 | 232.3 to 233.8
10 | CNC(=O)c1sccc1Nc1nc(Nc2ccc(NC(=O)C3CCCC3)cc2)ncc1C(F)(F)F [Compound 9n, 3-{2-[4-(Cyclopentanecarbonyl-amino)-phenylamino]-5-trifluoromethyl-pyrimidin-4-ylamino}-thiophene-2-carboxylic acid methylamide] | > 20 | – | 18.9 ± 1.14 | – | 13.8 ± 1.57 | > 20 | 246.4 to 247.2
11 | CNC(=O)c1sccc1Nc1nc(Nc2ccc(NC(=O)C3CC3)cc2)ncc1C(F)(F)F [Compound 9l, 3-{2-[4-(Cyclopropanecarbonyl-amino)-phenylamino]-5-trifluoromethyl-pyrimidin-4-ylamino}-thiophene-2-carboxylic acid methylamide] | > 20 | – | 12.6 ± 1.07 | – | 16.5 ± 2.31 | > 20 | > 250

These reach a lower IC50 [1]. Values come first.

Row | IC50 [1] [µM] | EGFR^wt-TK inhibition rate [2] [%] | inhibition at 1 µM [2] [%] | IC50 [2] [µM] | IC50 [3] [µM] | IC50 [4] [µM] | melting point [°C] | Compound
12 | 17 ± 1.82 | 54.49 ± 1.44 | > 50 | 0.44 ± 0.11 | 2.77 ± 0.59 | – | 218.9 to 219.7 | CNC(=O)c1sccc1Nc1nc(Nc2ccc(NC(=O)c3ccc(F)c(F)c3)cc2)ncc1C(F)(F)F [Compound 9e, 3-{2-[4-(3,4-Difluoro-benzoylamino)-phenylamino]-5-trifluoromethyl-pyrimidin-4-ylamino}-thiophene-2-carboxylic acid methylamide]
13 | 16.7 ± 1.53 | – | 49.38 ± 0.47 | – | 3.75 ± 0.55 | – | 217.2 to 219.3 | CNC(=O)c1sccc1Nc1nc(Nc2ccc(NC(=O)c3ccc(F)cc3)cc2)ncc1C(F)(F)F [Compound 9d, 3-{2-[4-(4-Fluoro-benzoylamino)-phenylamino]-5-trifluoromethyl-pyrimidin-4-ylamino}-thiophene-2-carboxylic acid methylamide]
14 | 16.4 ± 2.27 | 55.48 ± 1.71 | > 50 | 0.31 ± 0.095 | 2.23 ± 0.42 | 5.32 ± 0.74 | 239.8 to 241.5 | CNC(=O)c1sccc1Nc1nc(Nc2ccc(NC(=O)c3cccc(F)c3)cc2)ncc1C(F)(F)F [Compound 9c, 3-{2-[4–(3-Fluoro-benzoylamino)-phenylamino]-5-trifluoromethyl-pyrimidin-4-ylamino}-thiophene-2-carboxylic acid methylamide]
15 | 15.4 ± 2.38 | 55.73 ± 2.14 | > 50 | 0.48 ± 0.073 | 1.82 ± 0.49 | 4.91 ± 0.83 | – | C#CC(=O)Nc1ccc(Nc2ncc(C(F)(F)F)c(Nc3ccsc3C(=O)NC)n2)cc1 [Compound 9k, 3-[2-(4-Propynoylamino-phenylamino)-5-trifluoromethyl-pyrimidin-4-ylamino]-thiophene-2-carboxylic acid methylamide]
16 | 14.6 ± 0.83 | – | 32.5 ± 2.56 | – | 8.51 ± 0.94 | 11.9 ± 1.36 | 212.5 to 213.8 | CNC(=O)c1sccc1Nc1nc(Nc2ccc(NC(=O)c3ccccc3)cc2)ncc1C(F)(F)F [Compound 9a, 3-[2-(4-Benzoylamino-phenylamino)-5-trifluoromethyl-pyrimidin-4-ylamino]-thiophene-2-carboxylic acid methylamide]
17 | 12.2 ± 1.54 | – | 41.1 ± 1.79 | – | 5.13 ± 0.46 | 6.54 ± 0.53 | 232 to 233.5 | CNC(=O)c1sccc1Nc1nc(Nc2ccc(NC(=O)c3cccc(C(F)(F)F)c3)cc2)ncc1C(F)(F)F [Compound 9f, 3-{5-Trifluoromethyl-2-[4-(3-trifluoromethyl-benzoylamino)-phenylamino]-pyrimidin-4-ylamino}-thiophene-2-carboxylic acid methylamide]
18 | 11.5 ± 1.23 | – | 44.5 ± 1.84 | – | 4.25 ± 0.86 | 6.38 ± 0.97 | > 250 | CNC(=O)c1sccc1Nc1nc(Nc2ccc(NC(=O)Nc3ccc(F)cc3)cc2)ncc1C(F)(F)F [Compound 9x, 3–(2-{4-[3–(4-Fluoro-phenyl)-ureido]-phenylamino}-5-trifluoromethyl-pyrimidin-4-ylamino)-thiophene-2-carboxylic acid methylamide]
19 | 11.3 ± 1.42 | 56.43 ± 0.51 | > 50 | 0.35 ± 0.062 | 1.66 ± 0.54 | 3.37 ± 0.62 | 211.9 to 213.1 | CNC(=O)c1sccc1Nc1nc(Nc2ccc(NC(=O)c3cc(OC)c(OC)c(OC)c3)cc2)ncc1C(F)(F)F [Compound 9h, 3-{5-Trifluoromethyl-2-[4-(3,4,5-trimethoxy-benzoylamino)-phenylamino]-pyrimidin-4-ylamino}-thiophene-2-carboxylic acid methylamide]
20 | 11.2 ± 1.68 | – | 46.3 ± 1.85 | – | 4.03 ± 0.47 | 6.05 ± 0.82 | 213.3 to 215.4 | CNC(=O)c1sccc1Nc1nc(Nc2ccc(NC(=O)c3ccccc3F)cc2)ncc1C(F)(F)F [Compound 9b, 3-{2-[4-(2-Fluoro-benzoylamino)-phenylamino]-5-trifluoromethyl-pyrimidin-4-ylamino}-thiophene-2-carboxylic acid methylamide]
21 | 10.6 ± 1.74 | – | 47.7 ± 1.72 | – | 3.98 ± 0.83 | 6.15 ± 0.77 | > 250 | CNC(=O)c1sccc1Nc1nc(Nc2ccc(NC(=O)Nc3cccc(F)c3)cc2)ncc1C(F)(F)F [Compound 9w, 3-(2-{4-[3–(3-Fluoro-phenyl)-ureido]-phenylamino}-5-trifluoromethyl-pyrimidin-4-ylamino)-thiophene-2-carboxylic acid methylamide]
